The values below come from patent publication US20030113369A1, “Liposomes with enhanced circulation time and method of treatment” (priority 1991, published 2003).

The subject of data set [1] is C-26 colon carcinoma. Description: Tumor treatment, subcutaneous colon carcinoma. In kind it is in vivo, mice. How it is done: Vesicle-forming lipids containing PEG-PE, PG, PHEPC, and cholesterol and α-TC in a mole ratio of 0.15:0.3:1.85:1:0.2 were dissolved in chloroform to a final lipid concentration of 25 μmol phospholipid/ml. The lipid mixture was dried into a thin film under reduced pressure. […] The MLV suspension was frozen in a dry ice acetone bath and thawed three times and sized to 80-100 nm by extrusion as detailed above. An ammonium ion gradient was created substantially as described in Example 10. The liposomes were loaded with epirubicin, and free (unbound drug) removed also as described in Example 10 for doxorubicin. […] Epirubicin HCl and doxorubicin HCL, the commercial products, were obtained from the hospital pharmacy.
About 10^6 cells C-26 colon carcinoma cells were injected subcutaneously into three groups of 35 mice. The groups were subdivided into five 7-animal subgroups.
Each group was followed for 28 days. Tumor size was measured for each animal on days 5, 7, 12, 14, 17, 21, 24 and 28. The growth of the tumor in each subgroup (expressed as the mean tumor size of the individual animals) at each time point is plotted in FIG. 15A.
The same number of animals were inoculated with the same number of tumor cells as described above.

Data set [2] concerns syngeneic MC2 mouse mammary carcinoma. Description: Tumor treatment, breast carcinoma. As to conditions: 6 mg/kg IV on days 1, 8 and 15; FIG. 21. In kind it is in vivo, C3H/He mice. As for the experimental part:
Ten-week-old female C3H/He mice were randomized into three groups of 20 animals and each received bilateral subcutaneous implants of 10^5˜10^6 syngeneic MC2 mouse mammary carcinoma cells on day 0. Intravenous injections of 6 mg/kg of free epirubicin, PEG liposomes with entrapped epirubicin (6 mg/kg) or a saline control were given on days 1, 8 and 15. Weights of the animals were taken on days 0, 7, 14, 22 and 24.
Results of the study are plotted in FIG. 21, where mean tumor size for the three treatment groups is as indicated, expressed as mean tumor size (in mm^3×10^−1) for all three treatment groups. […] At day 24 the statistical confidence between the liposome and free drug groups is extremely high (+=9.9, p<0.0000001 using the Student's +tests).

Data set [3] is described as follows: Maximum tolerated dose. To be noted: mouse, in vivo. How it is done:
Solutions of free doxorubicin HCl, epirubicin HCl were obtained as above. PEG-liposome formulations containing either doxorubicin or epirubicin, at a drug concentration of 70-90 μg compound/μmole liposome lipid, were prepared as described in Example 10. Conventional liposomes (no PEG-derivatized lipid) were loaded with doxorubicin to a drug concentration of […] lipid using standard techniques.
Each of the five formulations was administered to 35 mice, at a dose between 10 and 40 mg drug/kg body weight, in 5 mg/kg increments, with five receiving each dosage.

The nature of data set [4]: Multidose toxicity of epirubicin: weight change and heart histology. In kind it is in vivo, mice.
Data set [5] has as its system C-26 colon carcinoma. To be noted: cited from earlier work.
Data set [6] relates to syngeneic mammary carcinoma cells (MC2). To be noted: cited from earlier work.
Data set [7] in a line: Survival at 120 days following a single injection.

SMILES strings stand for the structures. “Also recorded” adds a separate entry of the source. Structures can show the parent of a compound that is named as a salt.

`COc1cccc2c1C(=O)c1c(O)c3c(c(O)c1C2=O)C[C@@](O)(C(=O)CO)C[C@@H]3O[C@H]1C[C@H](N)[C@@H](O)[C@H](C)O1` [EPI, Epirubicin HCl]: the “survival of the animals at 120 days following tumor implantation” value in data set [1] (6 mg/kg on days 1, 8 and 15, seven animals per group) is “none”. The “tumor growth compared with the saline control” value in data set [1] (IV on days 1, 8 and 15, FIG. 15A) is on record as “neither free doxorubicin nor free epirubicin at 6 mg/kg significantly suppressed tumor growth”. Further, the “tumor response, delayed treatment” value in data set [1] (days 3, 10, 17 or days 10, 17, 24, 6 mg/kg (liposomes also 9 mg/kg), FIGS. 15B, 15C, 18, listed as free epirubicin, HCl) is on record as “only a modest retardation in the rate of tumor growth; also recorded: no tumor regression was seen”. Besides, the tumor growth result in data set [2] is on record as “the tumor grows quickly”. The MTD (as a rule, the largest dose that counted as tolerated) at 14 days in data set [3] is 10 mg/kg. Also, the weight change result in data set [4] (three weekly injections from day 3, 26-day period, C-26 tumor-bearing mice, FIG. 19) was “lost weight rapidly starting about day 10”. Also, in data set [4] (three weekly injections, 6 mg/kg free, 6 or 9 mg/kg liposomal), the “histological examination of heart muscle tissue” value is listed as “significant cardiomyopathy was observed”. In addition, the “in vitro activity against C-26 colon carcinoma” value in data set [5] is reported as “show in vitro activity against this tumor”. Also, the “in vitro sensitivity of MC2 cells” value in data set [6] is recorded as “sensitive in vitro”. The “Surviving mice at 120 days” value is recorded as 5/5 in data set [7] (3 mg/kg); 5/5 in data set [7] (6 mg/kg); 2/5 in data set [7] (9 mg/kg); 0/5 in data set [7] (12 mg/kg); 0/5 in data set [7] (15 mg/kg). In data set [7] (120 days), the “dose at which 2/5 animals died” value is recorded as 9 mg/kg.
